Test results published in US5474988A, “5-phenylpyrrolo-1,4-benzoxazine and 5-phenylpyrrolo-1,4-benzothiazine compounds, process and intermediates for their production and pharmaceutical compositions containing them” (Kali-Chemie Pharma GmbH, priority 1993, dated 1995).

Target: T1, 5-lipoxygenase (Cavia porcellus, UniProt A0A286X958)
T1 construct: The 5-LO was concentrated in a known manner from PMNs of male Dunkin-Hartley guinea-pigs; endogenous in cells; host or cells: peritoneal PMNs of male Dunkin-Hartley guinea-pigs, homogenized; 10,000 x g supernatant used as enzyme solution
T1 sequence (A0A286X958 1-674): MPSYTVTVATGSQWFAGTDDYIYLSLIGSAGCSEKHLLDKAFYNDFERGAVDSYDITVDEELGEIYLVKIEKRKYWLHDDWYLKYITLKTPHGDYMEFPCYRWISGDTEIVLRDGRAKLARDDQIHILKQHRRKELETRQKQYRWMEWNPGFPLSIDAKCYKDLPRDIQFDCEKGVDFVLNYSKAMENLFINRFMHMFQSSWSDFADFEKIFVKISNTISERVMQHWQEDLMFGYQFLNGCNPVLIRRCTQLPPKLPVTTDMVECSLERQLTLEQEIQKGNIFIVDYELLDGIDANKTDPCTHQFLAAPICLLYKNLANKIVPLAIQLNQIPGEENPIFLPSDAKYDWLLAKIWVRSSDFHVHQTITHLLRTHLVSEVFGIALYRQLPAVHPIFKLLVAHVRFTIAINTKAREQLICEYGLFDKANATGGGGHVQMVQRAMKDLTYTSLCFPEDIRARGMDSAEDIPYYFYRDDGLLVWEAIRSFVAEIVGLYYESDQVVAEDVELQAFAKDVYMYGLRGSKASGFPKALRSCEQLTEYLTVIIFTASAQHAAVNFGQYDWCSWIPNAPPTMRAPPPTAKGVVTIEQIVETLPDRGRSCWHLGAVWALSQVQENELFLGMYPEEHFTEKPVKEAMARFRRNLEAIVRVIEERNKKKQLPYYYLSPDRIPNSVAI
Assay: inhibitory activity on free 5-lipoxygenase concentrated from peritoneal PMNs of the guinea-pig (5-HETE formation)
Type: biochemical
Conditions: 10^-5 mole/liter; guinea-pig 5-LO, 37° C.; read-out: In vitro % inhibitory activity on 5-HETE formation caused by free 5-LO
Description: 4b. In vitro determination of inhibitory activity on 5-lipoxygenase concentrated from peritoneal PMNs of the guinea-pig.
An inhibition of 5-lipoxygenase can be caused by direct inhibitory action of the substances on the enzyme and/or by interference with the activation of the enzyme. While in test 4a the 5-lipoxygenase inhibition of the substances was investigated in rat PMN cells, in test 4b the inhibitory activity of the substances was investigated on free 5-LO concentrated from guinea-pig PMN cells according to the method of D. Aharony et al., J. Biol. Chem. 261 (1986), 11512-11519 (1986).
The 5-LO was concentrated in a known manner from PMNs of male Dunkin-Hartley guinea-pigs (body weight 400 to 500 g) as follows. 10 ml of a solution containing 27.9 g/l of sodium thioglycolate were injected i.p. into the animals in order to induce the PMN invasion as a result of this inflammatory stimulus. After 22 hours, the animals were sacrificed by lethal ether anaesthesia. 70 ml of HBSS without Ca^++ and Mg^++ ions and containing 0.2% by weight of sodium citrate were then injected into the abdominal cavity. The cell suspension (>80% of the cells are PMNs) was withdrawn from the abdominal cavity, filtered through a cheese-making filter cloth, and washed twice with a 50 mM potassium phosphate buffer solution of pH 7.4, which contained 0.5 mM ethylenediaminetetraacetic acid, 1% by weight of gelatine and 20 μM indomethacin. The cells were resuspended, and the PMN suspension containing 10^8 cells/ml was homogenized three times for 15 seconds each in an ice-bath in a homogenizer of the Labsonic™ type set at high speed. The resulting suspension was centrifuged at 4° C. (15 minutes at 10,000×g). The supernatant liquid was used for the investigation as a solution of the free 5-LO enzyme.
The experiments were carried out at 37° C. for 7 minutes using 0.625 ml samples of this enzyme solution. For the experiments, the enzyme solution (=equivalent of 2.5×10^7 cells), 0.5 mM glutathione, 1 mM ATP and 0.3 mM calcium chloride were added to test tubes. […] of the test substance were added to the samples dissolved in sufficient dimethylformamide such that the dimethylformamide concentration in each test tube is 0.5%. Only dimethylformamide was added to the control samples. After 2 minutes, the formation of 5-(S)-hydroxy-6,8,11,14-eicosatetraenoic acid (=[…]) was initiated by addition 10 μM arachidonic acid. After 5 minutes, the reaction was terminated by addition of 0.625 ml of a mixture of methyl acetate/methanol/0.2 m citric acid 15:2:0.5 v/v/v. 5-HETE was extracted twice using this solvent mixture. The 5-HETE-containing phases were combined and evaporated to dryness under a nitrogen atmosphere. The residue was taken up in a mixture of methanol/water/acetic acid 75:21:0.02 v/v/v having a pH of 5.7, and the solution was investigated for its content of 5-HETE by means of reverse phase HPLC. To accomplish this, a […] silanized silica gel column (Hichrom® ODS2, 250×4.6 mm) was employed as the adsorbent and a mixture of methanol/water/acetic acid 75:21:0.02 adjusted to pH 5.7 with ammonia and having a flow rate of 1 ml/min was used as the eluent. 5-HETE, which was eluted as a single peak after 20 minutes, was identified by comparison with standard solutions eluted at the same time and determined using a UV light detector at a wavelength of 235 nm. Quantitative determination was carried out by comparison of the peak area obtained with peak areas occurring in the calibrated standard solutions. From the 5-HETE contents of the samples determined, the inhibitory activity of the test substances was calculated in % inhibition of 5-HETE synthesis in comparison to the control samples containing no test substance.

Structure (SMILES) | inhibition at 10 µM [%]
Cc1cc(-c2c(C)c3cccc4c3n2CC(CCCC(=O)N2CCN(c3ccccn3)CC2)O4)cc(C)c1O (centres unmarked) [Example 23] | 93
Cc1cc(-c2c(C)c3c(F)ccc4c3n2CC(CCN2CCN(c3ccccn3)CC2)O4)cc(C)c1O (centres unmarked) [Example 27] | 50
Cc1cc(-c2c(C)c3c(OCc4ccccc4)ccc4c3n2CC(CCC(=O)N2CCN(c3ccccn3)CC2)O4)cc(C)c1O (centres unmarked) [Example 75] | 100
COc1cc(-c2c(C)c3c(O)ccc4c3n2CC(CCC(=O)N2CCN(c3ccccn3)CC2)O4)cc(C)c1O (centres unmarked) [Example 72] | 100
Cc1ccnc(N2CCN(C(=O)CCC3Cn4c(-c5ccc(O)cc5)c(C)c5cccc(c54)O3)CC2)c1 (centres unmarked) [Example 15] | 94
Cc1ccnc(N2CCN(C(=O)CCC3Cn4c(-c5cc(C)c(O)c(C)c5)c(C)c5cccc(c54)O3)CC2)c1 (centres unmarked) [Example 25] | 92
Cc1ccnc(N2CCN(CCC3Cn4c(-c5ccc(O)cc5)c(C)c5c(O)ccc(c54)O3)CC2)c1 (centres unmarked) [Example 4, 2,3-Dihydro-7-hydroxy-5-(4-hydroxyphenyl)-6-methyl-2-[2-(4-(4-methylpyridin-2-yl)piperazin-1-yl)ethyl]pyrrolo[1,2,3-de]-1,4-benzoxazine] | 100
COc1cc(-c2c(C)c3cccc4c3n2CC(CCC(=O)N2CCN(c3ccc(C)cn3)CC2)O4)ccc1O (centres unmarked) [Example 39] | 100
Cc1ccnc(N2CCN(CCC3Cn4c(-c5cc(C)c(O)c(C)c5)c(C)c5c(F)ccc(c54)O3)CC2)c1 (centres unmarked) [Example 28] | 44
COc1cc(-c2c(C)c3cccc4c3n2CC(CCN2CCN(c3cc(C)ccn3)CC2)O4)ccc1O (centres unmarked) [Example 12] | 100
Cc1cccnc1N1CCN(CCCC2Cn3c(-c4cc(C)c(O)c(C)c4)c(C)c4c(O)ccc(c43)O2)CC1 (centres unmarked) [Example 74] | 100
Cc1ccnc(N2CCN(CCC3Cn4c(-c5cc(C)c(O)c(C)c5)c(C)c5cc(O)cc(c54)O3)CC2)c1 (centres unmarked) [Example 44] | 98
Cc1ccc(N2CCN(C(=O)CCC3Cn4c(-c5ccc(O)cc5)c(C)c5cccc(c54)O3)CC2)nc1 (centres unmarked) [Example 34] | 97
Cc1cc(-c2c(C)c3c(O)ccc4c3n2CC(CCC(=O)N2CCN(c3ccccn3)CC2)O4)cc(C)c1O (centres unmarked) [Example 71] | 100
COc1ccc2c3c1c(C)c(-c1ccc(O)cc1)n3CC(CCN1CCN(c3cc(C)ccn3)CC1)O2 (centres unmarked) [Example 3, 2,3-Dihydro-5-(4-hydroxyphenyl)-7-methoxy-6-methyl-2-[2-(4-(4-methylpyridin-2-yl)piperazin-1-yl)ethyl]pyrrolo[1,2,3-de]-1,4-benzoxazine] | 53
Cc1ccnc(N2CCN(C(=O)CCC3Cn4c(-c5cc(C)c(O)c(C)c5)c(C)c5c(O)ccc(c54)O3)CC2)c1 (centres unmarked) [Example 67] | 100

Second part, the compound after the results:

inhibition at 10 µM [%] | Structure (SMILES)
99 | Cc1ccnc(N2CCN(CCC3Cn4c(-c5ccc(O)c(O)c5)c(C)c5cccc(c54)O3)CC2)c1 (centres unmarked) [Example 13]
100 | Cc1ccnc(N2CCN(C(=O)CCC3Cn4c(-c5ccc(O)cc5)c(C)c5c(O)ccc(c54)O3)CC2)c1 (centres unmarked) [Example 69]
96 | Cc1cc(-c2c(C)c3cccc4c3n2CC(CCC(=O)N2CCN(c3ccccn3)CC2)O4)cc(C)c1O (centres unmarked) [Example 26]
67 | Cc1ccnc(N2CCN(CCCC3Cn4c(-c5cc(C)c(O)c(C)c5)c(C)c5c(F)ccc(c54)O3)CC2)c1 (centres unmarked) [Example 29]
100 | Cc1ccnc(N2CCN(CCCC3Cn4c(-c5cc(C)c(O)c(C)c5)c(C)c5c(O)ccc(c54)O3)CC2)c1 (centres unmarked) [Example 73]
77 | COc1cc2c3c(c1)c(C)c(-c1cc(C)c(O)c(C)c1)n3CC(CCN1CCN(c3cc(C)ccn3)CC1)O2 (centres unmarked) [Example 43]
100 | Cc1ccnc(N2CCN(CCC3Cn4c(-c5cc(C)c(O)c(C)c5)c(C)c5cccc(c54)O3)CC2)c1 (centres unmarked) [Example 20]
88 | Cc1ccnc(N2CCN(C(=O)CCCC3Cn4c(-c5cc(C)c(O)c(C)c5)c(C)c5cccc(c54)O3)CC2)c1 (centres unmarked) [Example 9, 2,3-Dihydro-5-(3,5-dimethyl-4-hydroxyphenyl)-6-methyl-2-[4-(4-(4-methylpyridin-2-yl)piperazin-1-yl)-4-oxobutyl]-pyrrolo[1,2,3-de]-1,4-benzoxazine]
55 | Cc1ccnc(N2CCN(CCC3Cn4c(-c5cc(C)c(O)c(C)c5)c(C)c5cc(F)cc(c54)O3)CC2)c1 (centres unmarked) [Example 42]
99 | Cc1cc(-c2c(C)c3cccc4c3n2CC(CCCCN2CCN(c3ccccn3)CC2)O4)cc(C)c1O (centres unmarked) [Example 65]
